Results on 5 molecules are retold here after US5958682A (priority 1993, dated 1999).

Entries after “also recorded” stand apart in the source; their conditions may differ. Some results are limits rather than exact numbers.

One data set concerns the target E. coli nitroreductase (Escherichia coli, UniProt P38489). As to the kind of experiment: % drug reduction by E. coli nitroreductase during V79 cell treatment. The class given is biochemical. The following applies: 2 hours at 37° C. An excerpt: The initial cell density was 2×10^5 /mL.
Data set [1] concerns nitroreductase-transduced NIH3T3 cells. As to the kind of experiment: Bystander effect, 3H-thymidine incorporation in mixtures of 3T3-NTR14 and untransduced NIH3T3 cells. The class given is cell-based. Particulars: 50% transduced cells, FIG. 2. The text has this:
FIG. 2. […] Results are plotted as the quantity of ^3 H-thymidine incorporation into live cells […] (Y-axis) versus the percentage of transduced cells in the sample population (X-axis).

The test system of data set [2] is NTR-expressing NIH3T3 cells. Nature of the data set: Killing of serum-deprived (arrested) NTR-expressing NIH3T3 cells. The class given is cell-based. The following applies: arrest by serum deprivation, FIG. 3a. The text has this: (§1) FIG. 3. Two graphs comparing the nitroreductase/CB 1954 and thymidine kinase/gancyclovir enzyme/prodrug systems.
Data set [3] concerns HB4a/NR cells. As to the kind of experiment: Enzymatic reduction of CB 1954 by HB4a/NR cell lysate (HPLC). The class given is biochemical, human. Particulars: 100 μM CB 1954, 500 μM NADH, pH7, 37° C., FIG. 5. The protocol:
CB 1954 (100 μM) and NADH (500 μM) were incubated with a cell lysate prepared by sonication (250 μl, 1 mg/mL protein) in 10 mM sodium phosphate buffer (pH7) at 37° C. At various times aliquots (10 μl) were injected onto a Partisphere SCX (110×4.7 mm) HPLC column and eluted isocratically (2 ml/min) with 50 mM NaH2 PO4 in 1% (v/v) methanol. The eluate was continuously monitored for absorption at 260, 310, 340 nm using a diode-array detector. Alternatively, [U-^3 H]CB 1954 was added to give an activity of 1.6×10^5 dpm per nmole). Samples (0.3 ml) were collected and their tritium activity determined by liquid scintillation counting. Protein concentration was determined by a standard method (Biorad), calibrated against bovine albumin.

Data set [4] concerns HB4a/NR cells. As to the kind of experiment: Cell survival of HB4a/NR cells, plates scored by eye for cell growth. The class given is cell-based, human. Particulars: 2 hour exposure. The protocol: (§2) Cells were trypsinised and resuspended in fresh media at 2×10^5 cells per mL. They were then treated for two hours with CB 1954 (10 μl of appropriate stock in DMSO). The treated cells were then spun down, washed with fresh media, and plated out in triplicate at various concentrations. Cells were fixed and stained after 14 days incubation at 37° C. in a humidified atmosphere of 5% CO2 and 95% air.
(§3) The plating efficiency of both the HB4a/NR and HB4a/REP8 cell lines was poor and cells only grew when plated at a high initial cell density (1×10^4 per dish). These plates were scored by eye for cell growth. There is a dramatic difference in cell survival between the two cell lines.

The nature of data set [5]: Cell survival of HB4a/REP8 cells, plates scored by eye for cell growth. The class given is cell-based. The following applies: human, 2 hour exposure, read-out: dose up to which no cytotoxicity is shown. The protocol:
as §2, §3

In data set [6] the test system is HB4a/NR cells. Nature of the data set: DNA interstrand crosslinks, sedimentation in alkaline sucrose. The class given is cell-based, human. The protocol:
HB4a/NR cells were radiolabelled by growth for 48 hours in [^3 h]-thymidine. The cells were then treated with either 0, 10 or 50 μM CB 1954 for 24 hours and their DNA then analysed by sedimentation in alkaline sucrose.

The subject of data set [7] is TK-expressing NIH3T3 cells. Nature of the data set: Killing of arrested TK-expressing NIH3T3 cells. The class given is cell-based. The following applies: 10^-8 to 10^-3 M, FIG. 3b.
From the text: as §1

Setting [8] is: 50 μM drug + 500 μM NADH, no nitroreductase.
Where [9] appears, read: 50 μM drug + nitroreductase 2 μg/ml + 500 μM NADH.
Where [10] appears, read: 50 μM drug + nitroreductase 2 μg/ml, no NADH.
Setting [11] is: 50 μM drug alone, no NADH, no nitroreductase.

Procedure for V79 cells: NADH was used as a co-factor for both enzymes.
All treatments were for 2 hours at 37° C. and the cells were then plated out for their resulting colony forming ability. The nitroreductase concentration was 2 μg/ml and NADH was used as a co-factor. The initial cell density was 2×10^5 /mL.
Various concentrations of the prodrug were incubated with 1 mL of V79 cells (2×10^5 /mL), NADH (500 μL) and NR (2, 5 or 10 μg/mL) in PBS. After 2 h at 37° C., the cells were harvested and assayed for colony forming ability.

Take `NC(=O)c1cc(N(CCCl)CCCl)c([N+](=O)[O-])cc1[N+](=O)[O-]` [SN23862, 5-(bis(2'-chloroethyl)amino)-2,4-dinitrobenzamide]: the “% DRUG REDUCTION” value is on record as below 1.0% on E. coli nitroreductase (setting [8]), 95% on E. coli nitroreductase (setting [9]), below 1.0% on E. coli nitroreductase (setting [10]) and below 1.0% at E. coli nitroreductase (setting [11]).
On to `NC(=O)c1cc(N2CC2)c([N+](=O)[O-])cc1[N+](=O)[O-]` [CB 1954, 5-(aziridin-1-yl)-2,4-dinitrobenzamide], for which the “% DRUG REDUCTION” value on E. coli nitroreductase (setting [8]) was below 1.0%; on E. coli nitroreductase (setting [9]) it was 72%; on E. coli nitroreductase (setting [10]) it was below 1.0%; at E. coli nitroreductase (setting [11]), below 1.0%. Also, the “inhibition of 3H-thymidine incorporation” value in [1] came to 90%. For the same molecule, the “effect of cell arrest on killing by the prodrug” value in [2] is “does not affect their killing; also recorded: does not affect the relative cytotoxicity”. Also, the “decrease in the concentration of CB 1954” value in the data set with HB4a/NR cells [3] is on record as “time dependent decrease”. Besides, in the data set with HB4a/NR cells [4], the “dose at which cytotoxicity is exhibited” value was 1.0 µM. Moreover, the MNTC at 2 h in data set [5] was above 100 µM. In addition, the values for the DNA breaks in the data set with HB4a/NR cells [6] (10 μM CB 1954 for 24 hours) and in the data set with HB4a/NR cells [6] (50 μM CB 1954 for 24 hours) were 25 per 10^9 daltons of DNA and 28 per 10^9 daltons of DNA, respectively. Besides, the DNA crosslinks entry in the data set with HB4a/NR cells [6] (10 μM CB 1954 for 24 hours) was “about 6 per 10^9 daltons of DNA”; with HB4a/NR cells [6] (50 μM CB 1954 for 24 hours), 12 per 10^9 daltons of DNA.
`Nc1nc(O)c2ncn(COC(CO)CO)c2n1` [GCV, gancyclovir]: the “effect of cell arrest on killing by the prodrug” value in data set [7] is given as “prevents GCV killing; also recorded: prevents gancyclovir (GCV) cytotoxicity”.
For the molecule `Cc1c2oc3c(C)ccc(C(=O)N[C@@H]4C(=O)N[C@H](C(C)C)C(=O)N5CCC[C@H]5C(=O)N(C)CC(=O)N(C)[C@@H](C(C)C)C(=O)O[C@@H]4C)c3nc-2c(C(=O)N[C@@H]2C(=O)N[C@H](C(C)C)C(=O)N3CCC[C@H]3C(=O)N(C)CC(=O)N(C)[C@@H](C(C)C)C(=O)O[C@@H]2C)c(NC(=O)OCc2ccc([N+](=O)[O-])cc2)c1=O`, in the data set with V79 cells (NR 2, 5 or 10 μg/mL, NADH, 2 h at 37° C., FIG. 1), the “cytotoxicity of the prodrug in the presence of NR” value is “greatly enhanced in the presence of NR”.

B1: Nitroreductase: E. coli nitroreductase, enzyme that converts the prodrug into a cytotoxic drug (protein)
chain: MDIISVALKRHSTKAFDASKKLTPEQAEQIKTLLQYSPSSTNSQPWHFIVASTEEGKARVAKSAAGNYVFNERKMLDASHVVVFCAKTAMDDVWLKLVVDQEDADGRFATPEAKAANDKGRKFFADMHRKDLHDDAEWMAKQVYLNVGNFLLGVAALGLDAVPIEGFDAAILDAEFGLKEKGYTSLVVVPVGHHSVEDFNATLPKSRLPQNITLTEV
Regarding B1, in the data set on V79 cells (nitroreductase 2 μg/ml alone, no drug, 2 hours at 37° C.), the “% SURVIVAL” value is 94%.
